Drawing on patent US8426447B2, “Spiro-tricyclic ring compounds as beta-secretase modulators and methods of use” (Amgen Inc., priority 2008, dated 2013), this text covers IC50 for 45 compounds.

This assay addresses BACE1 (Homo sapiens, UniProt P56817). Nature of the assay: In Vitro Enzymatic BACE FRET (Fluorescence Resonance Energy Transfer) Assay. It is filed as biochemical. The settings on record: read-out: BACE1 FRET assay. The procedure:
In Vitro Enzymatic BACE FRET (Fluorescence Resonance Energy Transfer) Assay (Enzyme Assay Data in the Example Tables I, II, III & IV) The assay buffer used in this screen is 0.05 M acetate, pH 4.2, 10% DMSO final, 100 uM genapol (which is a nonionic detergent, below its Critical Micelle Concentration). […] This assay is effectively started by the addition of FRET substrate (50 nM) and the combination is incubated for one hour. The FRET assay is terminated with by addition of Tris buffer, which raises the pH to neutrality, and the fluorescence is determined. The FRET substrate is a peptide with commercially available fluorophore and quencher, on opposite sides of the BACE cleavage site. […]

Where [1] appears, read: in vitro BACE FRET enzyme assay, IC50 class symbols.

The structures appear in SMILES notation. Read-outs that look alike come from different tables or passages of the source.

Sequence of BACE1 (P56817 46-501, species assumed): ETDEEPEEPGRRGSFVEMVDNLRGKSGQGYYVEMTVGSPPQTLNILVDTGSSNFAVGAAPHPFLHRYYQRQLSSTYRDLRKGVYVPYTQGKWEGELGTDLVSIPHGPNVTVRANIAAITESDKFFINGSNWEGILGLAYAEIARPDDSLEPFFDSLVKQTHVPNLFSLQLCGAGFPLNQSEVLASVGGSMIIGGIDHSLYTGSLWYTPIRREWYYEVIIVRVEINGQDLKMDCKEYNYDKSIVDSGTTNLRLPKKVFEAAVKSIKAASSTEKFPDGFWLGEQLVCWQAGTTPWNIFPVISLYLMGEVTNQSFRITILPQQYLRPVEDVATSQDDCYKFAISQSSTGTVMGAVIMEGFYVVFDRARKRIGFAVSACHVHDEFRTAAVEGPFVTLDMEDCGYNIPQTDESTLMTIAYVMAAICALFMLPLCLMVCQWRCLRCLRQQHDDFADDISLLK

On to `COc1ccc(-c2cnc3c(c2)[C@]2(COC(N)=N2)c2cc(-c4cccnc4F)ccc2O3)cn1` [compound 344], for which, under setting [1], the IC50 is below 100 nM.

In the case of `CC(C)(C)C#Cc1cnc2c(c1)[C@]1(COC(N)=N1)c1cc(-c3cncc(C#N)c3)ccc1O2` [compound 317], the IC50 under setting [1] is below 100 nM.

Take `NC1=N[C@]2(CO1)c1cc(OC[C@@H]3CCCO3)ccc1Oc1ccc(-c3cncnc3)cc12` [Example 105, (4S)-2′-(5-pyrimidinyl)-7′-((2S)-tetrahydro-2-furanylmethoxy)spiro[1,3-oxazole-4,9′-xanthen]-2-amine]: the IC50 (Table II) was below 100 nM.

For `NC1=N[C@@]2(CO1)c1cc(-c3cccc(Cl)c3)ccc1Oc1ncc(C3=CCOCC3)cc12` [compound 322], the IC50 under setting [1] was below 100 nM.

For `NC1=N[C@@]2(CO1)c1cc(-c3cncc(Cl)c3)ccc1Oc1cnc(-c3cccnc3)cc12` [compound 303], under setting [1], the IC50 is below 100 nM.

Consider `NC1=N[C@]2(CO1)c1cc(OCC3CCCCO3)ccc1Oc1ccc(-c3cncnc3)cc12` (stereo partly drawn) [Example 107, (4S)-2′-(5-pyrimidinyl)-7′-(tetrahydro-2H-pyran-2-ylmethoxy)spiro[1,3-oxazole-4,9′-xanthen]-2-amine], for which the IC50 (Table II) was below 100 nM.

Regarding `COc1ccc2c(c1)[C@@]1(COC(N)=N1)c1cc(-c3cncnc3)ccc1O2` [Example 31, (4R)-2′-methoxy-7′-(5-pyrimidinyl)spiro[1,3-oxazole-4,9′-xanthen]-2-amine], the IC50 (Table 1) is above 5000 nM.

With `CC(C)(C)C#Cc1cnc2c(c1)[C@]1(COC(N)=N1)c1cc(-c3cccc(C#N)c3)ccc1O2` [compound 318], the IC50 under setting [1] was below 100 nM.

As for `CC(C)(C)C[C@H](O)c1ccc2c(c1)[C@]1(COC(N)=N1)c1cc(-c3cncnc3)ccc1O2` [Example 49, (1S)-1-((4S)-2-amino-7′-(5-pyrimidinyl)spiro[1,3-oxazole-4,9′-xanthen]-2′-yl)-3,3-dimethyl-1-butanol], the IC50 (Table II) is below 100 nM.

`Cn1cc(-c2cnc3c(c2)[C@]2(COC(N)=N2)c2cc(-c4cccnc4F)ccc2O3)cn1` [compound 346]: the IC50 under setting [1] is below 100 nM.

Turning to `NC1=N[C@]2(CO1)c1cc(C#CC3CC3)ccc1Oc1ccc(-c3cncnc3)cc12` [Example 101, (4R)-2′-(cyclopropylethynyl)-7′-(5-pyrimidinyl)spiro[1,3-oxazole-4,9′-xanthen]-2-amine], the IC50 (Table II) is below 100 nM.

Take `CC1(C#Cc2cnc3c(c2)[C@]2(COC(N)=N2)c2cc(-c4cccc(Cl)c4)ccc2O3)COC1` [compound 314]: the IC50 under setting [1] is below 100 nM.

For `CC(C)(C#Cc1cnc2c(c1)[C@]1(COC(N)=N1)c1cc(-c3cccnc3)ccc1O2)N1CCC1` [compound 320], the IC50 under setting [1] is below 100 nM.

In the case of `NC1=N[C@@]2(CO1)c1cc(-c3cncc(Cl)c3)ccc1Oc1cnc(C3=CCOCC3)cc12` [compound 309], under setting [1], the IC50 was below 100 nM.

As for `Cc1ccc(-c2cnc3c(c2)[C@]2(COC(N)=N2)c2cc(-c4cccnc4F)ccc2O3)cn1` [compound 339], the IC50 under setting [1] was below 100 nM.

Consider `NC1=NC2(CO1)c1cc(Cl)ccc1Oc1ccc(-c3cncnc3)cc12` (stereo not drawn) [Example 13, 2′-chloro-7′-(5-pyrimidinyl)spiro[1,3-oxazole-4,9′-xanthen]-2-amine], for which the IC50 (Table 1) was 100 to 1000 nM.

Regarding `NC1=N[C@@]2(CO1)c1cc(-c3c(F)ccnc3F)ccc1Oc1ncc(C3=CCOCC3)cc12` [compound 321], the IC50 under setting [1] is below 100 nM.

Take `COc1ccc(-c2cnc3c(c2)[C@]2(COC(N)=N2)c2cc(OCC(C)(C)C#N)ccc2O3)cn1` [compound 341]: the IC50 under setting [1] was below 100 nM.

As to `NC1=N[C@]2(CO1)c1cc(OC[C@H]3CC3(F)F)ccc1Oc1ccc(-c3cncnc3)cc12` [Example 98, (4S)-2′-(((1R)-2,2-difluorocyclopropyl)methoxy)-7′-(5-pyrimidinyl)spiro[1,3-oxazole-4,9′-xanthen]-2-amine], the IC50 (Table II) is below 100 nM.

With `NC1=N[C@@]2(CO1)c1cc(-c3cncc(Cl)c3)ccc1Oc1cnc(-c3ccncc3)cc12` [compound 302], the IC50 under setting [1] was below 100 nM.

In the case of `Cc1cncc(-c2ccc3c(c2)[C@@]2(COC(N)=N2)c2cc(-c4ccncc4)ncc2O3)c1` [compound 305], the IC50 under setting [1] was below 100 nM.

Take `COc1ccc2c(c1)[C@@]1(COC(N)=N1)c1cc(N3CCOCC3)cc(F)c1O2` [compound 304]: under setting [1], the IC50 lay in the range of 100 to 1000 nM.

In the case of `NC1=N[C@@]2(CO1)c1cc(-c3ccc(F)nc3)ccc1Oc1cnc(-c3ccnc(F)c3)cc12` [compound 311], the IC50 under setting [1] is below 100 nM.

With `Cc1cc(-c2cc3c(cn2)Oc2ccc(-c4ccc(F)nc4)cc2[C@@]32COC(N)=N2)ccn1` [compound 313], under setting [1], the IC50 is below 100 nM.

Turning to `CC(C)(C#N)COc1ccc2c(c1)[C@@]1(COC(N)=N1)c1cc(-c3ccc(OC(F)(F)F)cc3)cnc1O2` [compound 342], under setting [1], the IC50 is below 100 nM.

Take `CC(C)(C)COc1cnc2c(c1)[C@]1(COC(N)=N1)c1cc(C#CC3(C)COC3)ccc1O2` [compound 323]: under setting [1], the IC50 was below 100 nM.

For `NC1=N[C@]2(CO1)c1cc(C(=O)CC3CCCC3)ccc1Oc1ccc(-c3cncnc3)cc12` [Example 102, 1-((4S)-2-amino-7′-(5-pyrimidinyl)spiro[1,3-oxazole-4,9′-xanthen]-2′-yl)-2-cyclopentylethanone], the IC50 (Table II) was below 100 nM.

On to `NC1=N[C@]2(CO1)c1cc(OCC3CCCO3)ccc1Oc1ccc(-c3cccnc3)cc12` (stereo partly drawn) [Example 99, (4S)-2′-(3-pyridinyl)-7′-(tetrahydro-2-furanylmethoxy)spiro[1,3-oxazole-4,9′-xanthen]-2-amine], for which, under “Table II”, the IC50 is below 100 nM.

For `Cc1ccc2c(c1)Oc1ccc(-c3ccccc3C)cc1C21COC(N)=N1` (stereo not drawn) [Example 34, 6′-methyl-2′-(2-methylphenyl)spiro[1,3-oxazole-4,9′-xanthen]-2-amine], the IC50 (Table 1) is above 5000 nM.

For the compound `NC1=N[C@]2(CO1)c1cc(OC[C@@H]3CC3(F)F)ccc1Oc1ccc(-c3cncnc3)cc12` [Example 97, (4S)-2′-(((1S)-2,2-difluorocyclopropyl)methoxy)-7′-(5-pyrimidinyl)spiro[1,3-oxazole-4,9′-xanthen]-2-amine], the IC50 (Table II) is below 100 nM.

In the case of `CC1(C#Cc2cnc3c(c2)[C@]2(COC(N)=N2)c2cc(-c4cccnc4)ccc2O3)COC1` [compound 315], the IC50 under setting [1] was below 100 nM.

Consider `CC(C)(C#N)COc1ccc2c(c1)[C@@]1(COC(N)=N1)c1cc(-c3ccc(C#N)cc3)cnc1O2` [compound 340], for which the IC50 under setting [1] is below 100 nM.

Take `NC1=N[C@]2(CO1)c1cc(OC[C@H]3CCCO3)ccc1Oc1ccc(-c3cncnc3)cc12` [Example 106, (4S)-2′-(5-pyrimidinyl)-7′-((2R)-tetrahydro-2-furanylmethoxy)spiro[1,3-oxazole-4,9′-xanthen]-2-amine]: the IC50 (Table II) was below 100 nM.

Turning to `Cc1cncc(-c2ccc3c(c2)[C@@]2(COC(N)=N2)c2cc(C4CCOCC4)ncc2O3)c1` [compound 308], the IC50 under setting [1] is below 100 nM.

Consider `NC1=N[C@@]2(CO1)c1cc(-c3cccnc3F)ccc1Oc1cnc(-c3ccc(F)nc3)cc12` [compound 312], for which the IC50 under setting [1] is below 100 nM.

For the compound `NC1=N[C@]2(CO1)c1cc(C#CC3CCCC3)ccc1Oc1ccc(-c3cncnc3)cc12` [Example 95, (4R)-2′-(cyclopentylethynyl)-7′-(5-pyrimidinyl)spiro[1,3-oxazole-4,9′-xanthen]-2-amine], where the note is “Table II”, the IC50 was below 100 nM.

On to `Cc1cncc(-c2ccc3c(c2)[C@@]2(COC(N)=N2)c2cc(-c4ccnc(C)c4)ncc2O3)c1` [compound 307], for which the IC50 under setting [1] is below 100 nM.

As for `NC1=N[C@@]2(CO1)c1cc(-c3cccc(Cl)c3)ccc1Oc1ncc(-c3ccncc3)cc12` [compound 345], the IC50 under setting [1] is below 100 nM.

Consider `Cc1cccc(-c2ccc3c(c2)C2(COC(N)=N2)c2ccc(C)cc2O3)c1` (stereo not drawn) [Example 33, 6′-methyl-2′-(3-methylphenyl)spiro[1,3-oxazole-4,9′-xanthen]-2-amine], for which the IC50 (Table 1) was above 5000 nM.

`CC(C)(C)C#Cc1cnc2c(c1)[C@]1(COC(N)=N1)c1cc(OCC(C)(C)C#N)ccc1O2` [compound 319]: under setting [1], the IC50 is below 100 nM.

Take `NC1=N[C@@]2(CO1)c1cc(C#CC3CC3)ccc1Oc1ccc(OCC3CCCO3)cc12` (stereo partly drawn) [Example 103, (4S)-2′-(cyclopropylethynyl)-7′-(tetrahydro-2-furanylmethoxy)spiro[1,3-oxazole-4,9′-xanthen]-2-amine]: the IC50 (Table II) was below 100 nM.

On to `NC1=N[C@@]2(CO1)c1cc(-c3ccc(F)nc3)ccc1Oc1cnc(Cl)cc12` [compound 310], for which the IC50 under setting [1] lay in the range of 100 to 1000 nM.

As to `Cc1cncc(-c2ccc3c(c2)[C@@]2(COC(N)=N2)c2cc(-c4cccnc4)ncc2O3)c1` [compound 306], under setting [1], the IC50 is below 100 nM.

For the compound `Cc1ccc2c(c1)Oc1ccc(-c3ccc(OC(F)(F)F)cc3)cc1C21COC(N)=N1` (stereo not drawn) [Example 36, 6′-methyl-2′-(4-(trifluoromethoxy)phenyl)spiro[1,3-oxazole-4,9′-xanthen]-2-amine], the IC50 (Table 1) was above 5000 nM.

For `CC1(C)CCN(c2cnc3c(c2)[C@]2(COC(N)=N2)c2cc(-c4cccnc4F)ccc2O3)C1` [compound 316], the IC50 under setting [1] is below 100 nM.
